Read-outs that look alike come from different tables or passages of the source.
Columns and labels:
Atg7 = molecular target: T1, Atg7 (Homo sapiens, UniProt O95352); test: Atg7 activating enzyme (E1) inhibition; assay type: biochemical; settings: 25 uM compound, 60 min preincubation; read-out: Atg7 percent inhibition of adduct formation
T1 sequence (O95352 1-703): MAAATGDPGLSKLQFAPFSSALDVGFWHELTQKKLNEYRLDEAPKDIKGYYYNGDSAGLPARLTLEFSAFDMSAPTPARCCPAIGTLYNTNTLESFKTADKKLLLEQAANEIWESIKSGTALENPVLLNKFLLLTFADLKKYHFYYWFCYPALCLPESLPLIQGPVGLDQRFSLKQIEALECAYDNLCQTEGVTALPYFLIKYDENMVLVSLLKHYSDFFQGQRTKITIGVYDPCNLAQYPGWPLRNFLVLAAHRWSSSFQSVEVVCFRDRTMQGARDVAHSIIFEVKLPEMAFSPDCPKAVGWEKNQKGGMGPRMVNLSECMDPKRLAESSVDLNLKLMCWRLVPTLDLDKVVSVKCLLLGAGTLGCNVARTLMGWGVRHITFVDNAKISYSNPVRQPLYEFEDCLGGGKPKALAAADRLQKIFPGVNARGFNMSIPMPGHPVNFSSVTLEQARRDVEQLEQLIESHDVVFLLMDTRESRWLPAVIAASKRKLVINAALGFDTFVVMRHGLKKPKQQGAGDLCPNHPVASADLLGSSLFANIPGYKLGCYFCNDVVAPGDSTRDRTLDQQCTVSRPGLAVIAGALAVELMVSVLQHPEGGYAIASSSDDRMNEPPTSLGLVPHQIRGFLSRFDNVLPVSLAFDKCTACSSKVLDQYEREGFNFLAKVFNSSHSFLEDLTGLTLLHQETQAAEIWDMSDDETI
Summary of the method: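 Compounds were assessed for their ability to inhibit the Atg7 activating enzyme (E1) following previously published methods and protocols. The E1 enzyme was preincubated with compound, and activity was expressed as the percent inhibition of adduct formation, reported together with the compound concentration in uM and the E1–compound preincubation time in minutes.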

SUMO E1 = molecular target: T2, SUMO E1 (Homo sapiens, UniProt Q9UBT2); test: SUMO E1 inhibition: UBC9-SUMO1 conjugation by SDS gel electrophoresis; assay type: biochemical; settings: for inhibition at 6 µM: 6 uM compound; for inhibition at 9 µM: 9 uM compound; for inhibition at 27 µM: 27 uM compound
T2 sequence (Q9UBT2 1-640): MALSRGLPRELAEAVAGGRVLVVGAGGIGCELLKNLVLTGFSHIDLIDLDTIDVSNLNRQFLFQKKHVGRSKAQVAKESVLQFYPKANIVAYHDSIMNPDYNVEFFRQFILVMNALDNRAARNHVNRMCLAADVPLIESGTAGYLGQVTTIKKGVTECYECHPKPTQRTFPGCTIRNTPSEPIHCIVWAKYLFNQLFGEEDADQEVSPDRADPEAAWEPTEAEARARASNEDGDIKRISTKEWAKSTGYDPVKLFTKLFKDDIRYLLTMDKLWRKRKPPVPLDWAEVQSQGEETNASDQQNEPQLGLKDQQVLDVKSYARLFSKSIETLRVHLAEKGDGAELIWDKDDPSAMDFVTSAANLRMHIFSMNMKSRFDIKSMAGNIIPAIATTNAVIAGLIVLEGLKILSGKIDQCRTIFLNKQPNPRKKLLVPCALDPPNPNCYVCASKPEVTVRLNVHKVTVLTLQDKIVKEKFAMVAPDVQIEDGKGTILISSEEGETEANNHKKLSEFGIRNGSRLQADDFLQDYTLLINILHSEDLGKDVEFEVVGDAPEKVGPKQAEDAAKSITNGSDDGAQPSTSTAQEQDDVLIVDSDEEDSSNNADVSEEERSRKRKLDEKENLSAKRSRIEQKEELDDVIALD
T2 sequence (Q9UBE0 1-346 partner): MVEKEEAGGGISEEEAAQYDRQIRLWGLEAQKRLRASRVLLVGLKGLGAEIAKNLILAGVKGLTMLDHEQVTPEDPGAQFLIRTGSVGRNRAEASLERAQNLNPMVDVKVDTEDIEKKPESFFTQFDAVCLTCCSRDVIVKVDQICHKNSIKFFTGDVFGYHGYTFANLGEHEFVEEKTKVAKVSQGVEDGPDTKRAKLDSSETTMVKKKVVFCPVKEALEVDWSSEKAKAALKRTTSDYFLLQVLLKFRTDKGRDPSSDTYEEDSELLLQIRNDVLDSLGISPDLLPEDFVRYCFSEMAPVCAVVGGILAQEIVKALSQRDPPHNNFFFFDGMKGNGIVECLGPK
Summary of the method: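 SUMO E1 was preincubated with compound for a set time, then UBC9, SUMO1 and ATP were added and incubated at 37 °C. After Laemmli quench, UBC9-SUMO1 adduct was resolved by SDS gel; percent inhibition from band intensity versus no-compound control, reported with compound concentration (μM) and preincubation time (min).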

[1] = 15 min preincubation, read-out: SUMO E1 percent inhibition of adduct formation
[2] = 30 min preincubation, read-out: SUMO E1 percent inhibition of adduct formation
[3] = 25 uM compound, 60 min preincubation, read-out: SUMO E1 percent inhibition of adduct formation

| SMILES | inhibition at 25 µM (Atg7) [%] | inhibition at 25 µM (SUMO E1; [3]) [%] | further results |
| --- | --- | --- | --- |
| C=CC(=O)N1Cc2ccccc2[C@@H](c2ccccc2)C1 (stereo in doubt) [Compound 11] | < 1 | – | inhibition at 10 µM (SUMO E1; 10 uM compound, 60 min preincubation, read-out: SUMO E1 percent inhibition of adduct formation): 90% |
| C=CC(=O)N1Cc2sc(C)cc2[C@@H](c2ccccc2C)C1 [Compound 89] | < 1 | – | inhibition at 9 µM (SUMO E1; [2]): 95% |
| C=CC(=O)N1Cc2ccccc2[C@@H](c2cccc(OC)c2)C1 [Compound 35] | < 1 | < 1 | – |
| C=CC(=O)N1Cc2ccc(NC(=O)c3ccc(F)cc3)cc2C1 [Compound 15] | < 1 | < 1 | – |
| C=CC(=O)N1Cc2cccc(Br)c2[C@@H](c2ccccc2)C1 [Compound 62] | < 1 | 5 | – |
| C=CC(=O)N1Cc2cc(OC)ccc2[C@@H](c2ccc(Cl)cc2)C1 [Compound 34] | < 1 | < 1 | – |
| C=CC(=O)N1CCc2cc(Oc3cccc(C)c3)ccc2C1 [Compound 53] | < 1 | < 1 | – |
| C=CC(=O)N1Cc2ccccc2[C@@H](C(=O)OC)C1 [Compound 27] | < 1 | < 1 | – |
| COC(=O)/C=C/C(=O)N1Cc2ccccc2[C@@H](c2ccccc2)C1 [Compound 37] | < 1 | 40 | – |
| C=CC(=O)N1CCc2cc(Br)ccc2C1 [Compound 3] | < 1 | 70 | – |
| C=CC(=O)N1Cc2cccc(Br)c2[C@@H](c2ccccc2OC)C1 [Compound 71] | < 1 | 20 | – |
| C=CC(=O)N1Cc2cc(OC)ccc2[C@@H](c2ccccc2)C1 [Compound 42] | < 1 | < 1 | – |
| C=CC(=O)N1Cc2ccc(Br)cc2[C@@H](c2ccc(Cl)cc2)C1 [Compound 65] | < 1 | – | SUMO E1 percent inhibition of adduct formation (SUMO E1; 25 uM compound, 60 min preincubation, 25 µM): 25 uM 60 min 10% |
| C=CC(=O)N1Cc2ccc(CCO)cc2[C@@H](c2ccccc2)C1 [Compound 40] | < 1 | < 1 | – |
| C=CC(=O)N1CCc2cc(Cc3ccccc3)ccc2C1 [Compound 7] | < 1 | – | inhibition at 25 µM (SUMO E1; 25 uM compound, 30 min preincubation, read-out: SUMO E1 percent inhibition of adduct formation): 20% |

Further lines, with some results ahead:

| inhibition at 25 µM (Atg7) [%] | inhibition at 25 µM (SUMO E1; [3]) [%] | SMILES | further results |
| --- | --- | --- | --- |
| < 1 | – | C=CC(=O)N1Cc2sc(Cl)cc2[C@@H](c2ccccc2OCCN(C)C)C1 [Compound 151] | inhibition at 6 µM (SUMO E1; [1]): < 1% |
| 90 | – | CCS(=O)(=O)N1Cc2sc(Cl)cc2[C@@H](c2ccccc2C)C1 [Compound 96] | inhibition at 9 µM (SUMO E1; [2]): < 1% |
| < 1 | – | C=CC(=O)N1Cc2sccc2[C@@H](C2CCCCC2)C1 [Compound 123] | inhibition at 9 µM (SUMO E1; [2]): 40% |
| < 1 | – | C=CC(=O)N1Cc2sc(Cl)cc2[C@@H](c2ccccc2OCCCN2CCCC2)C1 [Compound 153] | inhibition at 6 µM (SUMO E1; [1]): < 1% |
| < 1 | – | C=CC(=O)N1Cc2sc(Cl)cc2[C@@H](c2ccccc2C)[C@H]1C [Compound 112] | inhibition at 27 µM (SUMO E1; [2]): 95% |
| < 1 | – | Cc1cc2c(s1)CN(C(=O)/C=C/c1ccccc1)C[C@@H]2c1ccccc1 [Compound 91] | inhibition at 9 µM (SUMO E1; [2]): < 1% |
| < 1 | – | C=CC(=O)N1Cc2sc(Cl)cc2[C@@H](c2ccccc2Br)C1 [Compound 113] | inhibition at 1 µM (SUMO E1; 1 uM compound, 30 min preincubation, read-out: SUMO E1 percent inhibition of adduct formation): 95% |
| 80 | – | C=CC(=O)N1Cc2sc(CCC)cc2[C@@H](c2ccccc2C)C1 [Compound 110] | inhibition at 27 µM (SUMO E1; [2]): 30% |
| < 1 | – | C=CC(=O)N1Cc2sccc2[C@@H](c2ccc(OC)cc2)C1 [Compound 155] | inhibition at 15 µM (SUMO E1; 15 uM compound, 15 min preincubation, read-out: SUMO E1 percent inhibition of adduct formation): < 1% |
